The test system of experiment [1] is Vaccinia virus. The experiment in a line: The compound was tested for inhibitory activity against vaccinia virus replication. In kind it is functional. As to conditions: Orthopoxvirus vaccinia; read-out: ID50 (the source's name).
Experiment [2] can be described thus: The compound was evaluated for cellular toxicity against [3H]thymidine incorporation into DNA of uninfected mouse L-cells. In kind it is functional. (In general: Uptake of a labelled nucleoside into DNA is a usual measure of proliferation.)
The subject of experiment [3] is Vaccinia virus. As to the kind of experiment: The compound was tested for inhibitory activity against vaccinia virus replication; NA=Not active. In kind it is functional, organism-based. As to conditions: Orthopoxvirus vaccinia.

pIC50: −log10 of the molar value. The source made the active and inactive calls. The calls are words filed in the database; no cut-off is given here.

Regarding `C=C(CO)OC(=C)n1cnc2c(N)ncnc21`, the pIC50 in the experiment with Vaccinia virus [1] was 4.52. The “[3H]thymidine incorporation, % of control” value in experiment [2] turned out to be 104%.

Regarding `Nc1ncnc2c1ncn2[C@@H](C=O)O[C@@H](C=O)CO`, the pIC50 with Vaccinia virus [1] was 6.52. Also, in experiment [2], the “[3H]thymidine incorporation, % of control” value was 8.3%.

In the case of `Nc1nc(O)c2ncn(C3COCC(CO)O3)c2n1` (stereo not drawn), the ID50 result in the experiment on Vaccinia virus [3] was “inactive”. For the same molecule, in experiment [2], the “[3H]thymidine incorporation, % of control” value amounted to 99%.

`Nc1ncnc2c1ncn2C1COCC(CO)O1` (stereo not drawn): the ID50 entry in the experiment with Vaccinia virus [3] is “inactive”. In addition, the “[3H]thymidine incorporation, % of control” value in experiment [2] came out at 95%.

The values above are taken from ChEMBL document CHEMBL1123381, “Synthesis and antiviral evaluation of 1,4-dioxane nucleoside analogues related to nucleoside dialdehydes” (1986).
